Experimental findings from patent US20200031778A1, “NOVEL 5-SUBSTITUTED IMIDAZOLYLMETHYL DERIVATIVES” (Bayer CropScience Aktiengesellschaft, priority 2016, published 2020) are described below.

Data set [1] is described as follows: Log P by HPLC on reversed phase columns (EEC directive 79/831 Annex V.A8; methods [a], [b], [c]). Type of data set: physicochemical. As to conditions: reversed phase HPLC column; method [a]: LC-UV, acidic range, 0.1% formic acid in water and acetonitrile as eluent (linear gradient from 10% to 95% acetonitrile). In short, it runs like this:
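Reversed-phase HPLC with LC-UV detection, 10→95% acetonitrile linear gradient; aqueous eluent 0.1% formic acid [a], 0.001 M ammonium acetate, neutral [b], or 0.1% phosphoric acid [c]. Calibrated against C3–C16 alkan-2-ones of known Log P by retention-time linear interpolation; multiple values within a method separated by "+".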

Another data set relates to Septoria tritici. In words: Example IX-B: in vivo preventive test on Septoria tritici (leaf spot on wheat). The settings on record: Zymoseptoria tritici, 576 h; compounds of formula IX; 500 ppm of active ingredient; wheat plants, preventive spray; evaluated 24 days after inoculation; read-out: efficacy. As to the method:
Example IX-B: In Vivo Preventive Test on Septoria Tritici (Leaf Spot on Wheat)
(§1) The active ingredients are made soluble and homogenized in a mixture of Dimethyl sulfoxide/Acetone/Tween® 80 and then diluted in water to the desired concentration.
The young plants of wheat are treated by spraying the active ingredient prepared as described above. Control plants are treated only with an aqueous solution of Acetone/Dimethyl sulfoxide/Tween® 80.
After 24 hours, the plants are contaminated by spraying the leaves with an aqueous suspension of Septoria tritici spores. The contaminated wheat plants are incubated for 72 hours at 18° C. and at 100% relative humidity and then for 21 days at 20° C. and at 90% relative humidity.
The test is evaluated 24 days after the inoculation. 0% means an efficacy which corresponds to that of the control plants while an efficacy of 100% means that no disease is observed.

The test system of another data set is Sphaerotheca fuliginea. Nature of the data set: Example IX-C: in vivo preventive test on Sphaerotheca fuliginea (powdery mildew on cucurbits). As to conditions: Podosphaera fuliginea, 360 h; compounds of formula IX; 500 ppm of active ingredient; gherkin plants, preventive spray; evaluated 15 days after inoculation; read-out: efficacy. As to the method: Example IX-C: In Vivo Preventive Test on Sphaerotheca Fuliginea (Powdery Mildew on Cucurbits)
as §1
The young plants of gherkin are treated by spraying the active ingredient prepared as described above. Control plants are treated only with an aqueous solution of Acetone/Dimethyl sulfoxide/Tween® 80.
After 24 hours, the plants are contaminated by spraying the leaves with an aqueous suspension of Sphaerotheca fuliginea spores. The contaminated gherkin plants are incubated for 72 hours at 18° C. and at 100% relative humidity and then for 12 days at 20° C. and at 70-80% relative humidity.
The test is evaluated 15 days after the inoculation. 0% means an efficacy which corresponds to that of the control plants while an efficacy of 100% means that no disease is observed.

SMILES strings stand for the structures.

The compound `O=C(Cn1cncc1Br)c1ccc(Oc2ccc(Cl)nc2)nc1Cl` [IX-27] yielded a chromatographic logP in data set [1] of 2.13. Moreover, the pest or weed control at 500 ppm in the data set with Septoria tritici and in the data set with Sphaerotheca fuliginea was 90 to 100% throughout.
Turning to `O=C(Cn1cncc1Br)c1ccc(Cl)cc1Cl` [IX-20], the chromatographic logP in data set [1] is 1.94. Besides, the pest or weed control at 500 ppm with Septoria tritici and in the data set with Sphaerotheca fuliginea was 90 to 100% in each case.
As to `N#Cc1cncn1CC(=O)c1ccc(Oc2ccc(Cl)nc2)nc1C(F)(F)F` [IX-140], the chromatographic logP in data set [1] was 2.55. In addition, the pest or weed control at 500 ppm in the data set on Septoria tritici and in the data set with Sphaerotheca fuliginea was 90 to 100% throughout.
In data set [1], `N#Cc1cncn1CC(=O)c1ccccc1C(F)(F)F` [IX-138] gave a chromatographic logP of 2.07. The pest or weed control at 500 ppm in the data set on Sphaerotheca fuliginea was in the range of 90 to 100%.
For `N#Cc1ccc(Oc2ccc(C(=O)Cn3cncc3Cl)c(Cl)c2)cc1` [IX-12], the chromatographic logP in data set [1] was 2.32. Moreover, the pest or weed control at 500 ppm with Septoria tritici and with Sphaerotheca fuliginea was 90 to 100% each time.
In data set [1], `N#Cc1cncn1CC(=O)c1ccc(F)cc1` [IX-100, 3-[2-(4-fluorophenyl)-2-oxo-ethyl]imidazole-4-carbonitrile] returned a chromatographic logP of 1.58. Besides, the pest or weed control at 500 ppm with Septoria tritici and with Sphaerotheca fuliginea was 90 to 100% in each case.
Take `O=C(Cn1cncc1Cl)c1ccc(Cl)cc1Cl` [IX-19]: in data set [1], the chromatographic logP was 1.94. The pest or weed control at 500 ppm in the data set on Septoria tritici and in the data set on Sphaerotheca fuliginea was 90 to 100% in each case.
On to `N#Cc1cncn1CC(=O)c1ccccc1Cl` [IX-126], for which, in data set [1], the chromatographic logP is 1.81. Moreover, the pest or weed control at 500 ppm in the data set on Septoria tritici lay within 80 to 89%; with Sphaerotheca fuliginea, 70 to 79%.
`CC(=O)c1cncn1CC(=O)c1ccc(Oc2ccc(Br)cc2)nc1C(F)(F)F` [IX-122] came in with a chromatographic logP in data set [1] of 3.31. The pest or weed control at 500 ppm with Septoria tritici and in the data set on Sphaerotheca fuliginea was 90 to 100% throughout.
In data set [1], `O=C(Cn1cncc1Cl)c1ccc(F)cc1Br` [IX-35] yielded a chromatographic logP of 1.57. Besides, in the data set on Sphaerotheca fuliginea, the pest or weed control at 500 ppm fell in the range of 90 to 100%.
In the case of `O=C(Cn1cncc1F)c1ccc(Oc2ccc(Br)nc2)nc1C(F)(F)F` [IX-142], the chromatographic logP in data set [1] amounted to 2.14. Moreover, the pest or weed control at 500 ppm in the data set with Septoria tritici and in the data set on Sphaerotheca fuliginea was 90 to 100% in each case.
In turn, `N#Cc1cncn1CC(=O)c1ccc(OC(F)(F)F)cc1` [IX-116] showed a chromatographic logP in data set [1] of 2.12. The pest or weed control at 500 ppm in the data set with Septoria tritici and with Sphaerotheca fuliginea was 80 to 89% throughout.
For the compound `CC(=O)c1cncn1CC(=O)c1cnc(Oc2ccc(C(F)F)cc2)cc1C(F)(F)F` [IX-103], the chromatographic logP in data set [1] amounted to 2.71. Moreover, the pest or weed control at 500 ppm with Septoria tritici and in the data set on Sphaerotheca fuliginea was 90 to 100% throughout.
`N#Cc1cncn1CC(=O)c1cnc(Oc2ccc(Cl)nc2)cc1C(F)(F)F` [IX-141] had a chromatographic logP in data set [1] of 2.62. The pest or weed control at 500 ppm in the data set with Septoria tritici and with Sphaerotheca fuliginea was 90 to 100% in each case.
For the compound `N#Cc1cncn1CC(=O)c1ccccc1Br` [IX-127], the chromatographic logP in data set [1] amounted to 1.79. In the data set with Septoria tritici, the pest or weed control at 500 ppm lay within 90 to 100%.
On the same counts, the results for `O=C(Cn1cncc1Cl)c1ccc(Oc2ccc(C(F)(F)F)cc2)c(Br)c1` [IX-16] are 3.29 and 90 to 100%.
On the same counts, the results for `COc1ccc(Oc2ccc(C(=O)Cn3cncc3Cl)c(C)n2)c(Cl)c1` [IX-25] are 2.33 and 90 to 100%.
